This is an account of results in patent US10059733B2 (NUCORION PHARMACEUTICALS, INC., priority 2014, dated 2018).

Where two headings read alike, the source gives them in different places.

In one data set the test system is HCV luciferase replicon. The experiment in a line: IC50 assay: inhibition of the HCV luciferase replicon in Huh7 cells. The conditions noted are these: for IC50: Hepatitis C virus; for Therapeutic Index (TC50/IC50): TC50 in Huh7 / IC50 HCV replicon, 48 h. The format is cell-based. How it is done: After 48 h of treatment at 37° C., the media in each well was removed, the cells were gently washed once with phosphate buffered saline (PBS) and subsequently lysed by the addition of Glo Lysis Buffer (Promega). After a 15 min incubation at room temperature to allow for complete cell lysis, Bright-Glo luciferase reagent (Promega) was added to each well and the relative luciferase activity in each well was determined by using a Glowmax 96 microplate luminometer (Promega).
IC50 values determined using the above methods for inhibition of the HCV luciferase replicon in Huh7 cells are set forth in Table 1.
All compounds were purified by HPLC.

Data set [1] in a line: TC50 assay in Huh7 cells, 48 h (CellTiter 96). The conditions noted are these: human. How it is done:
(§1) Huh7 cells were maintained at 37° C. in a humidified atmosphere at 5% CO2 in DMEM containing 10% FBS. […] The cells were then treated with each compound at concentrations ranging from 500 μM to 0 μM in triplicate in DMEM media containing 2% FBS and 0.5% DMSO and without phenol red. After 48 h of treatment at 37° C., the relative number of living cells in each well was determined by using the CellTiter 96 system (Promega) according to the manufacturer's instructions. The 3-(4,5-dimethylthiazol-2-yl)-5-(3-carboxymethoxyphenyl)-2-(4-sulfophenyl)-2H-tetrazolium (MTS) and phenazine methosulfate (PMS) reagents were added to each well of the 96-well plate and the plate was incubated at 37° C. for approximately 2 h. The absorbance at 490 nm and 650 nm in each well was then determined by using a Flexstation 3 microplate reader ([…]). The absorbance determined at 650 nm was then subtracted from the absorbance determined at 490 nm to correct for light scattering. The corrected absorbance values representing the relative number of live cells in each condition were then plotted as a function of compound concentration, and the data were then fit to the following sigmoidal Emax equation by using Kaleidagraph: y=(Emax*x^Slope)/(TC50^Slope+x^Slope) where y is the relative corrected absorbance value, Emax is the maximum relative inhibition, x is the compound concentration, TC50 is the concentration of the compound at which the total cell population is reduced by 50%, and Slope is the slope of the curve.
(§2) The data in Table 1 were determined for cells exposed to drug for 48 h. The IC50 is the concentration of each compound necessary to inhibit the replication of the HCV luciferase replicon to 50%. “TC50,” refers to toxic concentration necessary to reduce the cell population by 50%. All compounds were purified by HPLC.

For the next data set, the system named is Huh7. As to the kind of experiment: TC50 assay with human cancer cell lines, 96 h: Huh7. It is filed as cell-based.
In another data set the test system is HEPG2. As to the kind of experiment: TC50 assay with human cancer cell lines, 96 h: HEPG2. It is filed as cell-based.
A further data set has as its system HEK293. The experiment in a line: TC50 assay with human cancer cell lines, 96 h: HEK293. It is filed as cell-based.
A further data set deals with MCF-7. The experiment in a line: TC50 assay with human cancer cell lines, 96 h: MCF-7. It is filed as cell-based.
A further data set deals with BxPC3. The experiment in a line: TC50 assay with human cancer cell lines, 96 h: BxPC3. The format is cell-based.
In data set [2] the test system is PK9 cells. The experiment in a line: TC50 assay in PK9 cells, 48 h. The conditions noted are these: Homo sapiens, PK9, 48 h, read-out: TC50 (μM) in PK9 cells at 48 hr. Here is the method:
as §1
(§3) PK9 and RPK9 cells were maintained at 37° C. in a humidified atmosphere at 5% CO2 in Roswell Park Memorial Institute (RPMI) media containing 10% FBS. […] The cells were then treated with each compound at concentrations ranging from […] to 0 μM in triplicate in RPMI media containing 2% FBS and 0.5% DMSO and without phenol red. […] The RPK9 cells were derived from the parental PK9 cell line, and are deficient for dCK activity due to the partial deletion of the dCK gene.

Another data set has as its system RPK9 cells. As to the kind of experiment: TC50 assay in gemcitabine resistant (dCK deficient) RPK9 cells, 48 h. The conditions noted are these: read-out: TC50 (μM) in RPK9 cells at 48 hr. How it is done: as §1, §3
Data set [3] relates to PK9 cells. The experiment in a line: Cell transport: cytotoxicity in PK9 cells with or without ENT1 inhibitor NBTI. The following applies: Homo sapiens, PK9, 48 h. Here is the method:
as §1
(§4) To this end, Huh7 cells or PK9 cells were seeded in 96-well plates at a density of 5,000 cells/well or 2,500 cells/well, respectively, and the plates were incubated at 37° C. for 24 h to allow for cell attachment. The media was then removed from the plates and replaced with media containing 2% FBS, 0.5% DMSO and 10 μM NBTI. […] Subsequently, the cells were treated with each compound at final concentrations ranging from 500 μM to 0 μM in triplicate in media containing 2% FBS, 0.5% DMSO and 10 μM NBTI. […] The TC50 values of each compound in the presence or absence of the ENT1 inhibitor were then compared.

In data set [4] the test system is Huh7 cells. The experiment in a line: Cell transport: cytotoxicity in Huh7 cells with or without ENT1 inhibitor NBTI. The conditions noted are these: Homo sapiens, Huh-7, 48 h. How it is done:
as §1, §4

Another data set relates to genotype 1a HCV. As to the kind of experiment: Oral administration to HCV-infected chimpanzees, viral load (genotype 1a). The format is in vivo, chimpanzee. The conditions noted are these: Chimpanzee III. How it is done: (§5) Via oral gavage, two HCV-infected chimpanzees I (male, 56.49 kg and 11 years old; genotype 1b HCV) and II (male, 61.91 kg and 34 years old; genotype 1a HCV) each received a single dosage of 200 mg of Compound 1 in Formulation I while the HCV-infected chimpanzee III (male, 56.19 kg and 18 years old; genotype 1a HCV) was administered a single dosage of 260 mg of the non-phosphorylated analog of Compound 1 (Table 1) in Formulation I. After 12 hours, the HCV viral titer decreased from 24,100 to 10,200 IU/ml (or 58% drop) in Chimpanzee I, from 38,500 to 27,000 IU/ml (or 30% drop) in Chimpanzee II, and from 154,000 to 142,000 IU/ml (or 8% drop) in Chimpanzee III. […] All animals were fasted overnight prior to dosing and a minimum of 2 hours prior to scheduled blood sample collections. Viral load determinations were performed on plasma samples using the HCV TaqMan assay (COBAS® AmpliPrep/COBAS® TaqMan® HCV Test, Version 2, Test Code 1220) for quantitative analysis. […] There were no adverse effects, illness, nor distress seen with the three chimpanzees during the study requiring veterinarian intervention.

Data set [5] is described as follows: Tolerability of single oral dosage in HCV-infected chimpanzees. The format is in vivo, chimpanzee. The conditions noted are these: single oral dosage 260 mg. How it is done:
as §5

For data set [6], the system named is Huh7 cells. As to the kind of experiment: TC50 assay in Huh7 cells, 48 h (CellTiter 96). The conditions noted are these: read-out: TC50; Huh7 cells, 48 h exposure. How it is done:
as §1, §2

[7] abbreviates: Huh-7, 96 h, read-out: TC50 Huh7 (μM).
[8] abbreviates: HepG2, 96 h, read-out: TC50 HEPG2 (μM).
[9] abbreviates: HEK293, 96 h, read-out: TC50 HEK293 (μM).
The mark [10] stands for this setting: MCF7, 96 h, read-out: TC50 MCF-7 (μM).
[11] abbreviates: BXPC-3, 96 h, read-out: TC50 BxPC3 (μM).
Where [12] appears, read: Huh-7, Huh7 cells containing HCV luciferase replicon, 48 h exposure, read-out: IC50.
Setting [13] is: Huh-7, 96 h of treatment, read-out: TC50 Huh7.
Setting [14] is: HepG2, 96 h of treatment, read-out: TC50 HEPG2.
The mark [15] stands for this setting: HEK293, 96 h of treatment, read-out: TC50 HEK293.
The mark [16] stands for this setting: MCF7, 96 h of treatment, read-out: TC50 MCF-7.
Where [17] appears, read: BXPC-3, 96 h of treatment, read-out: TC50 BxPC3.
Where [18] appears, read: read-out: TC50 (μM) in PK9 cells at 48 h Without NBTI.

Protocol for BxPC3: (§6) Huh7 cells were maintained at 37° C. in a humidified atmosphere at 5% CO2 in DMEM containing 10% FBS. […] The cells were then treated with each compound at concentrations ranging from 500 μM to 0 μM in triplicate in DMEM media containing 2% FBS and 0.5% DMSO and without phenol red. After 48 h of treatment at 37° C., the relative number of living cells in each well was determined by using the CellTiter 96 system (Promega) according to the manufacturer's instructions. The 3-(4,5-dimethylthiazol-2-yl)-5-(3-carboxymethoxyphenyl)-2-(4-sulfophenyl)-2H-tetrazolium (MTS) and phenazine methosulfate (PMS) reagents were added to each well of the 96-well plate and the plate was incubated at 37° C. for approximately 2 h. The absorbance at 490 nm and 650 nm in each well was then determined by using a Flexstation 3 microplate reader (Molecular Dynamics). The absorbance determined at 650 nm was then subtracted from the absorbance determined at 490 nm to correct for light scattering. The corrected absorbance values representing the relative number of live cells in each condition were then plotted as a function of compound concentration, and the data were then fit to the following sigmoidal Emax equation by using Kaleidagraph: y=(Emax*x^Slope)/(TC50^Slope+x^Slope) where y is the relative corrected absorbance value, Emax is the maximum relative inhibition, x is the compound concentration, TC50 is the concentration of the compound at which the total cell population is reduced by 50%, and Slope is the slope of the curve.
(§7) Huh7, HEPG2, HEK293, MCF-7 and BxPC3 cell lines were maintained at 37° C. in a humidified atmosphere at 5% CO2 in DMEM containing 10% FBS. […] The cells were then treated with each compound at concentrations ranging from 500 μM to 0 μM in triplicate in DMEM media containing 2% FBS and 0.5% DMSO and without phenol red.
Protocol for HEK293: as §6, §7
Protocol for HEPG2: as §6, §7
Protocol for MCF-7: as §6, §7

Molecule `COc1cc(C(=O)Nc2ccn([C@@H]3O[C@H](CO[P@@](=O)(N[C@@H](C)C(=O)OC(C)C)Oc4ccccc4)C(O)C3(F)F)c(=O)n2)cc(OC)c1OC` (stereo in doubt) [Compound 3] returned an IC50 in the data set on HCV luciferase replicon (Huh-7, 48 h) of 274 ± 80 nM. For the same molecule, in the data set on HCV luciferase replicon, the “Therapeutic Index (TC50/IC50)” value is recorded as 210. The CC50 at 48 h in [1] worked out at 57500 ± 11600 nM. For the same molecule, the CC50 in the data set with Huh7 (setting [7]) stood at 8.37 µM; in the data set on HEPG2 (setting [8]), 1.57 µM; in the data set on HEK293 (setting [9]), 1.1 µM; in the data set with MCF-7 (setting [10]), 0.683 µM; with BxPC3 (setting [11]), 4.07 µM; with PK9 cells [2] it was 18.5 ± 11.9 µM. For the same molecule, in the data set with RPK9 cells, the CC50 was determined as 24.2 ± 4.2 µM.

In the data set with HCV luciferase replicon (Huh-7, 48 h), `CC(C)OC(=O)[C@H](C)N[P@](=O)(OC[C@H]1O[C@@H](n2ccc(NC(=O)c3ccc4c(c3)OCO4)nc2=O)C(F)(F)C1O)Oc1ccccc1` (stereo in doubt) [Compound 4] displayed an IC50 of 309 ± 45 nM. In the data set with HCV luciferase replicon, the “Therapeutic Index (TC50/IC50)” value came to 134. In addition, the CC50 at 48 h in data set [1] came out at 41400 ± 5600 nM. In addition, the CC50 in the data set with Huh7 (setting [7]) came to 5.5 µM; with HEPG2 (setting [8]), 3.22 µM; in the data set on HEK293 (setting [9]), 2.7 µM; in the data set on MCF-7 (setting [10]), 1.93 µM; in the data set with BxPC3 (setting [11]) it was 4.05 µM; in the data set on PK9 cells [2], 16 ± 4.8 µM. Besides, the CC50 in the data set with RPK9 cells turned out to be 20.3 ± 3.9 µM.

As for `Nc1ccn([C@@H]2O[C@H](CO)[C@@H](O)C2(F)F)c(=O)n1` [Gemcitabine, 2′,2′-difluorodeoxycytidine, reference compound], the IC50 in the data set with HCV luciferase replicon (setting [12]) worked out at 58 ± 6 nM. Also, the CC50 was 3.41 ± 1.36 µM in the data set with Huh7 (setting [13]); 0.311 ± 0.055 µM with HEPG2 (setting [14]); 0.56 ± 0.13 µM in the data set with HEK293 (setting [15]); 0.067 ± 0.014 µM in the data set with MCF-7 (setting [16]); 0.0029 ± 0.003 µM in the data set with BxPC3 (setting [17]); 0.095 ± 0.035 µM in the data set with PK9 cells [2]. The CC50 in the data set on RPK9 cells was over 500 µM; in the data set on PK9 cells [3] (setting [18]) it was 0.095 µM.

Turning to `CCCC(CCC)C(=O)Nc1ccn(C2O[C@H](CO)[C@@H](O)C2(F)F)c(=O)n1` (some centres unmarked) [Non-phosphorylated analog of Compound 1], in the data set on HCV luciferase replicon (setting [12]), the IC50 came out at 451 ± 79 nM. Besides, in the data set on HCV luciferase replicon, the “Therapeutic Index (TC50/IC50)” value was 850. This molecule also displayed a CC50 at 48 h in data set [1] (Huh7 cells) of 383000 ± 51000 nM. Further, the CC50 with Huh7 (setting [13]) is 3.89 ± 0.68 µM; with HEPG2 (setting [14]) it was 4.32 ± 0.34 µM; in the data set with HEK293 (setting [15]), 15.1 ± 1.77 µM; with MCF-7 (setting [16]), 9.06 ± 1.95 µM; in the data set on BxPC3 (setting [17]), 1.02 ± 0.15 µM; with PK9 cells [2], 1.27 ± 0.09 µM. For the same molecule, the CC50 with RPK9 cells was over 500 µM; in the data set on Huh7 cells [4] (read-out: TC50 (μM) in Huh7 cells at 48 h With NBTI), 260 µM; in the data set with Huh7 cells [4] (read-out: TC50 (μM) in Huh7 cells at 48 h Without NBTI), 383 µM; in the data set on PK9 cells [3] (read-out: TC50 (μM) in PK9 cells at 48 h With NBTI), 6.6 µM; in the data set with PK9 cells [3] (setting [18]) it was 1.27 µM. Also, the “drop of HCV viral titer after 12 hours” value with genotype 1a HCV (single oral dosage 260 mg) was 8%. Further, the “HCV viral titer after 12 hours” value in the data set with genotype 1a HCV (single oral dosage 260 mg in Formulation I, titer before 154,000 IU/ml) is on record as 142,000 IU/ml. Further, the tolerability result in [5] is recorded as “well tolerated”.

Consider `COc1cc(C(=O)Nc2ccn([C@@H]3O[C@H](CO)[C@@H](O)C3(F)F)c(=O)n2)cc(OC)c1OC` [Non-phosphorylated analog of Compound 3, N-(1-((2R,4R,5R)-3,3-difluoro-4-hydroxy-5-(hydroxymethyl)tetrahydrofuran-2-yl)-2-oxo-1,2-dihydropyrimidin-4-yl)-3,4,5-trimethoxybenzamide], for which the IC50 in the data set on HCV luciferase replicon (setting [12]) is 49.3 ± 8.8 nM. Moreover, in the data set on HCV luciferase replicon, the “Therapeutic Index (TC50/IC50)” value is listed as 10040. Besides, the CC50 with Huh7 cells [6] stood at 495000 ± 97000 nM; in the data set on Huh7 (setting [13]), 5.05 µM; in the data set with HEPG2 (setting [14]) it was 1.67 µM; with HEK293 (setting [15]), 1.28 µM; in the data set with MCF-7 (setting [16]), 0.566 µM; in the data set with BxPC3 (setting [17]), 1.83 µM. Moreover, the CC50 with PK9 cells [2] is 1.69 ± 0.1 µM; in the data set on RPK9 cells, over 500 µM.

One may read the IC50 as the concentration that inhibits the measured activity by half.
